# Where two headings read alike, the source gives them in different places.
# What was measured:
# TR-iBRB2 cells [1] = test: Effect of compounds on [3H]amantadine uptake by TR-iBRB2 cells; type: in vitro ADME, rat
# Description: (§1) In 10% fetal bovine serum (FBS; Merck, Darmstadt, Germany)-containing Dulbecco’s modified Eagle’s medium (DMEM; Nissui Pharmaceutical, Tokyo, Japan) with 20 mM NaHCO3, 0.19 mM benzylpenicillin potassium, and 0.14 mM streptomycin sulfate, TR-iBRB2 cells (passage number 32–60) were cultured according to previous reports. As described previously, RPE-J cells (passage number 79-92) were cultured in DMEM with 4% FBS, 20 mM NaHCO3, and 0.1 mM non-essential amino acid (FUJIFILM Wako Pure Chemical, Osaka, Japan) containing 0.16 mM benzylpenicillin potassium and 0.17 mM streptomycin sulfate. In accordance with established protocols for the uptake study, the cells were seeded at a density of 1.0 × 10^5 cells/well onto a collagen I-coated 24-well plate (BioCoat™ Collagen I Cellware, Corning, Corning, NY, USA) and cultured for 2 days, at 33 °C, under 5% CO2/air. Referring to the previous reports, we started the uptake reaction, and the details of the procedure are included in the Supplemental Materials.
# (§2) Cell/medium ratio = [^3H]compound (dpm) per cell protein (mg)/[^3H]compound (dpm) per medium (µL)(2) […]
# (§3) 7.4) three times at 37°C.
# (§4) and KHCO3, respectively. Cl--free ECF buffer was prepared by replacing equimolar
# (§5) protein assay kit (Bio-Rad, Hercules, CA, USA).
# RPE-J cells [2] = test: Effect of compounds on [3H]amantadine uptake by RPE-J cells; type: in vitro ADME, rat
# Description: as §1, §2, §3, §4, §5
# TR-iBRB2 cells [3] = conditions: read-out: Km for uptake by TR-iBRB2 cells; cited from earlier work
# RPE-J cells [4] = test: Verapamil uptake by RPE-J cells, effect of amantadine; type: in vitro ADME, rat
# Description: as §1
# Cell/medium ratio = [^3H]compound (dpm) per cell protein (mg)/[^3H]compound (dpm) per medium (µL)(2)
# Kinetic parameters for cell uptake, such as the maximal uptake rate (Vmax), Michaelis–Menten constant (Km), and non-saturable uptake clearance (Kd), were obtained by using the nonlinear least-squares regression analysis program (MULTI) with Equations (3)–(5), where the uptake rate of the test compound and its concentration were V and S, respectively. V = (Vmax × S)/(Km + S)(3) V = (Vmax × S)/(Km + S) + Kd × S(4) V = (Vmax1 × S)/(Km1 + S) + (Vmax2 × S)/(Km2 + S)(5) […]
# as §3, §4, §5
# [5] = compound 0.2 mM, [3H]amantadine 1.67 µM, 3 min, 37 °C
# [6] = compound 2.5 mM, [3H]amantadine 1.67 µM, 3 min, 37 °C
# [7] = Rattus norvegicus, 0.05 h, read-out: [3H]amantadine uptake, % of Control, TR-iBRB2
# [8] = Rattus norvegicus, 0.05 h, read-out: [3H]amantadine uptake, % of Control, RPE-J
# [9] = compound 1.0 mM, [3H]amantadine 1.67 µM, 3 min, 37 °C
Structure (SMILES),"[3H]amantadine uptake, % of Control, TR-iBRB2 (TR-iBRB2 cells [1]; [5])","[3H]amantadine uptake, % of Control, RPE-J (RPE-J cells [2]; [5])",activity at 200 µM (TR-iBRB2 cells [1]; [7]),activity at 200 µM (RPE-J cells [2]; [8]),further results
C[N+](C)(C)C[C@H](O)CC(=O)[O-] [L-Carnitine],111 ± 35 % of Control,95.1 ± 5.2 % of Control,–,–,"[3H]amantadine uptake, % of Control, TR-iBRB2 (TR-iBRB2 cells [1]; [6]): 99.5 ± 2.3 % of Control; [3H]amantadine uptake, % of Control, RPE-J (RPE-J cells [2]; [6]): 119 ± 28 % of Control"
N[C@@H](CCC(=O)O)C(=O)O [L-Glutamic acid],–,–,–,–,activity at 2500 µM (TR-iBRB2 cells [1]; [7]): 80.2 ± 10%; activity at 2500 µM (RPE-J cells [2]; [8]): 84.5 ± 16.4%
CC(C)C[C@H](N)C(=O)O [L-Leucine],–,–,–,–,"[3H]amantadine uptake, % of Control, TR-iBRB2 (TR-iBRB2 cells [1]; [6]): 112 ± 17 % of Control; [3H]amantadine uptake, % of Control, RPE-J (RPE-J cells [2]; [6]): 113 ± 16 % of Control"
"C[n+]1ccc(-c2ccccc2)cc1 [MPP^+, 1-methyl-4-phenylpyridinium]",106 ± 31 % of Control,75.5 ± 5.0 % of Control,–,–,"[3H]amantadine uptake, % of Control, RPE-J (RPE-J cells [2]; [9]): 91.9 ± 5.6 % of Control"
CC12CC3CC(C)(C1)CC(N)(C3)C2 [Memantine],–,–,16.7 ± 2.2%,123 ± 38%,activity at 1000 µM (RPE-J cells [2]; [8]): 27.1 ± 2.6%
"Nc1ccc(C(=O)NCC(=O)O)cc1 [PAH, p-aminohippuric acid]",–,–,85.8 ± 10.8%,139 ± 33%,–
CC(C)NCC(O)COc1cccc2ccccc12 (stereo not drawn) [Propranolol],8.61 ± 0.75 % of Control,15.7 ± 5.9 % of Control,–,–,reduction of [3H]amantadine uptake by TR-iBRB2 cells (TR-iBRB2 cells [1]; compound 0.2 mM): more than 58%; Km (TR-iBRB2 cells [3]): 237 µM
COc1ccc(CN(CCN(C)C)c2ccccn2)cc1 [Pyrilamine],–,–,20.9 ± 1.8%,77.8 ± 38.4%,activity at 1000 µM (RPE-J cells [2]; [8]): 18.2 ± 1.7%
CCc1nc(N)nc(N)c1-c1ccc(Cl)cc1 [Pyrimethamine],–,–,44.3 ± 8.8%,88.9 ± 3.3%,–
C=C[C@H]1C[N@@]2CC[C@H]1C[C@@H]2[C@@H](O)c1ccnc2ccc(OC)cc12 [Quinidine],13.7 ± 1.8 % of Control,34.1 ± 3.0 % of Control,–,–,–
NCCc1c[nH]c2ccc(O)cc12 [Serotonin],–,–,126 ± 60%,158 ± 52%,–
"CC[N+](CC)(CC)CC [TEA, tetraethylammonium]",–,87.7 ± 11.8 % of Control,–,–,"[3H]amantadine uptake, % of Control, TR-iBRB2 (TR-iBRB2 cells [1]): 117 ± 45 % of Control; [3H]amantadine uptake, % of Control, RPE-J (RPE-J cells [2]; [9]): 81.8 ± 10.3 % of Control"
CC(C)(C)NC[C@H](O)COc1nsnc1N1CCOCC1 [Timolol],34.6 ± 10.6 % of Control,59.1 ± 5.1 % of Control,–,–,–
COc1ccc(CCN(C)CCCC(C#N)(c2ccc(OC)c(OC)c2)C(C)C)cc1OC (stereo not drawn) [Verapamil],–,–,–,–,"[3H]amantadine uptake, % of Control, TR-iBRB2 (TR-iBRB2 cells [1]): 22.1 ± 6.2 % of Control; [3H]amantadine uptake, % of Control, RPE-J (RPE-J cells [2]): 20.5 ± 4.8 % of Control; Km (RPE-J cells [4]): 55.6 ± 5.2 µM; Vmax (RPE-J cells [4]): 6.31 ± 0.35 nmol/(min·mg protein); reduction of [3H]verapamil uptake by unlabeled verapamil (RPE-J cells [4]): 86%"

# Source: article PMC8469395 (Pharmaceutics, 2021)
